Values of other authors in US8496914B2, “Antibacterial oral rinse formulation for preventing coronary artery disease” (priority 2005, dated 2013).

What was measured:
Staphylococcus aureus = details: Williams et al. 1997
[1] = system: Staphylococcus aureus, Staphylococcus epidermidis and Propionibacterium acnes; details: Raman et al. 1995

With `CC1=CCC(O)(C(C)C)CC1` (stereo not shown) [terpinen-4-ol] as the molecule, how does the “activity against Staphylococcus aureus” value (Staphylococcus aureus) read?
Its value is “equally effective”.

What about the “inhibition of three bacterial strains” value [1] of the same molecule?
The value was “inhibit”.

With `CC1=CCC(C(C)(C)O)CC1` (stereo not drawn) [alpha-terpineol] as the molecule, how does the “inhibition of three bacterial strains” value [1] read?
The value was “inhibit”.

Which “inhibition of three bacterial strains” value [1] does the source give for `CC1=CCC2CC1C2(C)C` (stereo not drawn) [alpha-pinene] here?
Its value is “inhibit”.
